Measured values as given in patent publication US20260200944A1, “NOVEL IRAK4 INHIBITOR AND COMPOUND FOR INHIBITING AND DEGRADING IRAK4 PROTEIN, AND PREPARATION METHOD THEREFOR AND USE THEREOF” (DOVETREE MEDICINES UNUS, INC., priority 2022, published 2026).
pIC50: −log10 of the molar value.

Target: T1, IRAK4 kinase protein (Homo sapiens, UniProt Q9NWZ3)
T1 sequence (Q9NWZ3 1-460): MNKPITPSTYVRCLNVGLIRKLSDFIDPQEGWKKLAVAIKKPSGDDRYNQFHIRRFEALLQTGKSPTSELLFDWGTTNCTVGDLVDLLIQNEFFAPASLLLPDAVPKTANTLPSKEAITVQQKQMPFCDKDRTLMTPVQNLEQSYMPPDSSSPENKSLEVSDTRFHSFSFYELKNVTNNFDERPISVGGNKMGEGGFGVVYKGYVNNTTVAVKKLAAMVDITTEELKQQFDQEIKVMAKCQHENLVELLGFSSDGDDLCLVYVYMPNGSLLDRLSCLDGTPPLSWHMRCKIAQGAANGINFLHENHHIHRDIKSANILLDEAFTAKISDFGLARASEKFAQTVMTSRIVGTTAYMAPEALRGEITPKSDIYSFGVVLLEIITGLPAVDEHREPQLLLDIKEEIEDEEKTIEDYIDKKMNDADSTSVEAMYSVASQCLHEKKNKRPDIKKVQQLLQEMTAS
Test: IRAK4 kinase inhibition assay (Cisbio HTRF KinEASE-STK S1 kit)
Format: biochemical
Conditions: IRAK4 10 nM, ATP 200 μM, substrate 1 μM, 37° C. for 2 h, read-out: IRAK4 inhibitory activity IC50
Method: In this assay, the Cisbio HTRF KinEASE-STK SI kit (62S1PEB) was used. The assay/detection buffer, STK Substrate 1-biotin, Streptavidin-XL665, and STKAntibody-Crypatete were all contained in the kit.
After the compound/DMSO was added to a 384-well plate (PerkinElmer 6008280) using Echo 665, 5 μL of 2-fold reaction concentration of IRAK4 kinase protein (final concentration: 10 nM) dissolved with an assay buffer [1 volume of 5× kinase buffer+20 mM magnesium chloride (Sigma) solution+1 mM DTT (Alfa Aesar) solution+4 volumes of deionized water] was added. The shallow well plate was sealed, shaken, centrifuged at 1000 rpm for 1 min, and then incubated at room temperature for 5 min. Then, 5 μL of 2-fold reaction concentration of a 1:1 mixture of STK Substrate 1-biotin (final concentration: 1 μM) and ATP (Sigma A1852) (final concentration: 200 μM) formulated with the assay buffer was added. The shallow well plate was sealed, shaken, centrifuged at 1000 rpm for 1 min, and then incubated at 37° C. for 2 h, followed by the addition of 10 μL of a 1:1 mixture of Streptavidin-XL665 (final concentration: 62.5 nM) and STK-antibody-cryptate dissolved with a detection buffer. The shallow well plate was sealed, shaken, centrifuged at 1000 rpm for 1 min, and then incubated at room temperature for 1 h, and then the value at the wavelength of 620 nm/665 nm was read using a microplate reader. The data were analyzed using Prism 9.3 software, and the IC50 value of IRAK4 kinase inhibition was fitted using a four parameter Logistic equation.

Compared with FC(F)c1nn(C2CCCCC2)c2cnc(-n3ccc4ccc(N5CCOCC5)nc43)cc12 [Compound C1], NC(=O)c1cnc2c(ccn2-c2cc3c(C(F)F)nn(C4CCCCC4)c3cn2)c1 [Compound C5ii] is higher in pIC50: 5.00 to 5.30 for the first, 5.30 to 6.00 for the second. The second is the more potent here.

Compared with N#Cc1cnc2c(-c3cc4c(C(F)F)nn(C5CCCCC5)c4cn3)cnn2c1 [Compound C3i], N#Cc1cnc2c(ccn2-c2cc3c(C(F)F)nn(C4CCCCC4)c3cn2)c1 [Compound C5i] is lower in pIC50: 5.30 to 6.00 for the first, < 5.00 for the second. The first is the more potent here.

NC(=O)c1cnn2c(-c3cc4c(C(F)F)nn(C5CCCCC5)c4cn3)ccc2c1 [Compound C4ii] was tested, and the pIC50 was > 6.00.
